For one data set, the system named is Alternaria solani. In words: Test F: preventive spray on tomato seedlings, tomato early blight. Type of data set: in vivo. The source says:
(§1) General protocol for preparing test suspensions for Tests A-F: the test compounds were first dissolved in acetone in an amount equal to 3% of the final volume and then suspended at the desired concentration (in ppm) in acetone and purified water (50/50 mix by volume) containing 250 ppm of the surfactant PEG400 (polyhydric alcohol esters). The resulting test suspensions were then used in Tests A-F.
The test suspension was sprayed to the point of run-off on tomato seedlings. The following day the seedlings were inoculated with a spore suspension of Alternaria solani (the causal agent of tomato early blight) and incubated in a saturated atmosphere at 27° C. for 48 h, and then moved to a growth chamber at 20° C. for 3 days, after which time visual disease ratings were made.
(§2) A rating of 100 indicates 100% disease control and a rating of 0 indicates no disease control (relative to the controls). A dash (-) indicates the compound was not tested.

Data set [1] concerns Puccinia recondita f. sp. tritici. The data set is described as follows: Test B: preventive spray on wheat seedlings, wheat leaf rust. It counts as in vivo. The following applies: Puccinia recondita, 192 h; Rate 10 ppm; read-out: Test B disease control rating.
Excerpt: as §1
The test solution was sprayed to the point of run-off on wheat seedlings. The following day the seedlings were inoculated with a spore suspension of Puccinia recondita f. sp. tritici (the causal agent of wheat leaf rust) and incubated in a saturated atmosphere at 20° C. for 24 h, and then moved to a growth chamber at 20° C. for 7 days, after which time disease ratings were made.
as §2

The subject of data set [2] is Phakopsora pachyrhizi. The data set is described as follows: Test D: preventive spray on soybean seedlings, Asian soybean rust. Type of data set: in vivo. The following applies: Phakopsora pachyrhizi, 216 h; Rate 10 ppm; read-out: Test D disease control rating.
Excerpt: as §1
The test solution was sprayed to the point of run-off on soybean seedlings. The following day the seedlings were inoculated with a spore suspension of Phakopsora pachyrhizi (the causal agent of Asian soybean rust) and incubated in a saturated atmosphere at 22° C. for 24 h and then moved to a growth chamber at 22° C. for 8 days, after which time visual disease ratings were made.
as §2

The subject of data set [3] is Phakopsora pachyrhizi. The data set is described as follows: Test G: Compound 41 or 63 alone and in mixtures on soybean seedlings, Asian soybean rust, Colby synergy. It counts as in vivo. Particulars: for pest or weed control at 0.403 ppm: Compound 63 0.403 ppm alone; for pest or weed control at 0.652 ppm: Compound 63 0.652 ppm alone; for pest or weed control at 0.346 ppm: Compound 41 0.346 ppm alone; for pest or weed control at 0.764 ppm: Compound 41 0.764 ppm alone. The text has this:
The general protocol for preparing test compositions for TEST G was as follows: Compound 41, Compound 63, N-(2,2,2-trifluoroethyl)-2-[[4-[5-(trifluoromethyl)-1,2,4-oxadiazol-3-yl]phenyl]methyl]-4-oxazolecarboxamide (b54.11a), ethyl 1-[[4-[[(1Z)-2-ethoxy-3,3,3-trifluoro-1-propen-1-yl]oxy]phenyl]methyl]-1H-pyrazole-4-carboxylate (b54.11c), ethyl 1-[[4-[[2-(trifluoromethyl)-1,3-dioxolan-2-yl]methoxy]phenyl]methyl]-1H-pyrazole-4-carboxylate (b54.11d), azoxystrobin, benzovindiflupyr, bixafen, chlorothalonil, cyproconazole, epoxiconazole, fenpropidin, fenpropimorph, fluindapyr, flutriafol, fluxapyroxad, inpyrfluxam, picoxystrobin, prothioconazole, pydiflumetofen, tebuconazole and trifloxystrobin were obtained as unformulated, technical-grade materials. Copper hydroxide and mancozeb was obtained as a formulated product marketed under the trademarks KOCIDE 3000 and MANZATE, respectively. Unformulated materials were first dissolved in acetone and then suspended at the desired concentration (in ppm) in acetone and purified water (50/50 mix by volume) containing 250 ppm of the surfactant Trem® 014 (polyhydric alcohol esters). Formulated materials were dispersed in sufficient water to give the desired concentration, and neither organic solvent nor surfactant was added to the suspension. The resulting test mixtures were then used in TEST G. The tests were run on four individual plants and the results reported as the mean average of the four plants.
The presence of a synergistic effect between two active ingredients was established with the aid of the Colby equation (see Colby, S. R. “Calculating Synergistic and Antagonistic Responses of Herbicide Combinations”, Weeds, (1967), 15, 20-22):
Using the method of Colby, the presence of a synergistic interaction between two active ingredients is established by first calculating the predicted activity, p, of the mixture based on activities of the two components applied alone. If p is lower than the experimentally established effect, synergism has occurred. In the equation above, A is the fungicidal activity in percentage control of one component applied alone at rate x. The B term is the fungicidal activity in percentage control of the second component applied at rate y. The equation estimates p, the expected fungicidal activity of the mixture of A at rate x with B at rate y if their effects are strictly additive and no interaction has occurred.
The test mixture was sprayed to the point of run-off on soybean seedlings. The following day the seedlings were inoculated with a spore suspension of Phakopsora pachyrhizi (the causal agent of Asian soybean rust) and incubated in a saturated atmosphere at 22° C. for 24 h and then moved to a growth chamber at 22° C. for 8 days, after which time visual disease ratings were made.
Results for TEST G are given below in Tables B-1 through J-1 for Compound 41, and Tables B-2 through J-2 for Compound 63. Each table corresponds to a set of evaluations performed together at the same time. In each table, a rating of 100 indicates 100% disease control and a rating of 0 indicates no disease control (relative to the controls). Columns labeled “Obsd” indicate the average of results observed from test run on four individual plants. Columns labeled “Exp” indicate the expected value for each treatment mixture using the Colby equation.

Setting [4] is: Phakopsora pachyrhizi, Table B-2, read-out: Test G Obsd.
Setting [5] is: Phakopsora pachyrhizi, Table C-2, read-out: Test G Obsd.
Setting [6] is: Phakopsora pachyrhizi, Table B-1, read-out: Test G Obsd.
The mark [7] stands for this setting: Phakopsora pachyrhizi, Table C-1, read-out: Test G Obsd.

Like-named read-outs stand apart in the source and are kept apart here.

For `COC(=O)NCc1cc(-c2ccn(-c3c(F)cc(OC(F)F)cc3F)n2)ccc1C` [Compound 15, methyl N-[[5-[1-[4-(difluoromethoxy)-2,6-difluorophenyl]-1H-pyrazol-3-yl]-2-methylphenyl]methyl]carbamate], in the data set with Alternaria solani (Rate 10 ppm), the “Test F disease control rating” value was found to be 0%.
`COC(=O)NNc1cc(-c2ccn(-c3c(F)cc(Cl)cc3F)n2)ccc1C` [Compound 153] had a melting point of 153 to 156 °C. For the same compound, the pest or weed control at 10 ppm in data set [1] stood at 68%. In addition, in the data set on Phakopsora pachyrhizi [2], the pest or weed control at 10 ppm came out at 91%.
Consider `COC(=O)NCc1cc(-c2ccn(-c3c(F)cc(C(C)C)cc3F)n2)ccc1C` [Compound 63, methyl N-[[5-[1-[2,6-difluoro-4-(1-methylethyl)phenyl]-1H-pyrazol-3-yl]-2-methylphenyl]methyl]carbamate], for which, in the data set with Alternaria solani (Rate 10 ppm), the “Test F disease control rating” value was found to be 85%. In the data set with Phakopsora pachyrhizi [3] (setting [4]), the pest or weed control at 0.403 ppm turned out to be 34% and the pest or weed control at 0.652 ppm was found to be 68%. Moreover, in the data set with Phakopsora pachyrhizi [3] (setting [5]), the pest or weed control at 0.403 ppm was 15% and the pest or weed control at 0.652 ppm is 46%.
In the case of `OC(Cc1ccccc1Cl)(Cn1nc[nH]c1=S)C1(Cl)CC1` (stereo not drawn) [Prothioconazole, prothioconazole], in the data set on Phakopsora pachyrhizi [3] (Phakopsora pachyrhizi, prothioconazole alone 10.165 ppm, read-out: Test G Obsd), the pest or weed control at 10.165 ppm amounted to 7%. Besides, the pest or weed control at 16.339 ppm with Phakopsora pachyrhizi [3] (Phakopsora pachyrhizi, prothioconazole alone 16.339 ppm, read-out: Test G Obsd) turned out to be 65%.
In the case of `CO/C=C(/C(=O)OC)c1ccccc1COc1cccc(C(F)(F)F)n1` [Picoxystrobin, picoxystrobin], the “Test G Obsd” value in the data set on Phakopsora pachyrhizi [3] (picoxystrobin alone 20.596 ppm) is on record as 63%; in the data set on Phakopsora pachyrhizi [3] (picoxystrobin alone 33.856 ppm) it was 79%; in the data set on Phakopsora pachyrhizi [3] (picoxystrobin alone 33.865 ppm), 79%.
As to `O=C(NCC(F)(F)F)c1coc(Cc2ccc(-c3noc(C(F)(F)F)n3)cc2)n1` [(b54.11a)], the “Test G Obsd” value turned out to be 59% in the data set with Phakopsora pachyrhizi [3] (Table B-1, (b54.11a) 0.471 ppm alone) and 75% with Phakopsora pachyrhizi [3] (Table B-1, (b54.11a) 0.764 ppm alone).
The compound `CO/N=C(\C)c1cc(F)c(-n2ncc(-c3ccc(C)c(CNC(=O)OC)c3)n2)c(F)c1` [Compound 142, methyl (E)-N-[[5-[2-[2,6-difluoro-4-[1-(methoxyimino)ethyl]phenyl]-2H-1,2,3-triazol-4-yl]-2-methylphenyl]methyl]carbamate] registered a melting point of 104 to 108 °C. In addition, the pest or weed control at 10 ppm in data set [1] was found to be 86%. Also, in the data set on Phakopsora pachyrhizi [2], the pest or weed control at 10 ppm was 100%.
With `COC(=O)NCc1cc(-c2ccn(-c3c(F)cc(C4CC4)cc3F)n2)ccc1C` [Compound 41, methyl N-[[5-[1-(4-cyclopropyl-2,6-difluorophenyl)-1H-pyrazol-3-yl]-2-methylphenyl]methyl]carbamate], the pest or weed control at 0.346 ppm was found to be 29% in the data set on Phakopsora pachyrhizi [3] (setting [6]) and 19% in the data set with Phakopsora pachyrhizi [3] (setting [7]). Also, the values for the pest or weed control at 0.764 ppm with Phakopsora pachyrhizi [3] (setting [6]) and in the data set on Phakopsora pachyrhizi [3] (setting [7]) were 62% and 45%, respectively.
Take `COC(=O)NCc1cc(-c2ncn(-c3c(F)cc([N+](=O)[O-])cc3F)n2)ccc1C` [Compound 107]: the “Test F disease control rating” value in the data set on Alternaria solani (Rate 250 ppm) is recorded as 0%.
As for `CC(Cc1ccc(C(C)(C)C)cc1)CN1CCCCC1` (stereo not drawn) [Fenpropidin, fenpropidin], in the data set with Phakopsora pachyrhizi [3] (Phakopsora pachyrhizi, fenpropidin alone 78.393 ppm, read-out: Test G Obsd), the pest or weed control at 78.393 ppm was found to be 45%. In addition, in the data set on Phakopsora pachyrhizi [3] (Phakopsora pachyrhizi, fenpropidin alone 161.740 ppm, read-out: Test G Obsd), the pest or weed control at 161.74 ppm turned out to be 68%.
As to `CON(C(=O)c1cn(C)nc1C(F)F)C(C)Cc1c(Cl)cc(Cl)cc1Cl` (stereo not drawn) [Pydiflumetofen, pydiflumetofen], the “Test G Obsd” value came out at 49% in the data set on Phakopsora pachyrhizi [3] (pydiflumetofen alone 41.364 ppm), 0% in the data set with Phakopsora pachyrhizi [3] (pydiflumetofen alone 70.950 ppm), 36% in the data set with Phakopsora pachyrhizi [3] (pydiflumetofen alone 128.793 ppm) and 73% in the data set on Phakopsora pachyrhizi [3] (pydiflumetofen alone 135.850 ppm).
Turning to `COC(=O)NCc1cc(-c2ccn(-c3c(F)cc(Cl)cc3F)n2)ccc1C` [Compound 6, methyl N-[[5-[1-(4-chloro-2,6-difluorophenyl)-1H-pyrazol-3-yl]-2-methylphenyl]methyl]carbamate], the “Test F disease control rating” value in the data set with Alternaria solani (Rate 10 ppm) came out at 40%.
Consider `COC(=O)NCc1cc(-c2ccn(-c3c(F)cc(C(F)(F)F)cc3F)n2)ccc1C` [Compound 64, methyl N-[[5-[1-[2,6-difluoro-4-(trifluoromethyl)phenyl]-1H-pyrazol-3-yl]-2-methylphenyl]methyl]carbamate], for which, in the data set with Alternaria solani (Rate 10 ppm), the “Test F disease control rating” value was 0%.
Consider `COC(=O)NCc1cc(-c2cnn(-c3c(F)cc([N+](=O)[O-])cc3F)n2)ccc1C` [Compound 118, methyl N-[[5-[2-(2,6-difluoro-4-nitrophenyl)-2H-1,2,3-triazol-4-yl]-2-methylphenyl]methyl]carbamate], for which the “Test F disease control rating” value in the data set on Alternaria solani (Rate 250 ppm) was 0%.
Consider `CC(Cc1ccc(C(C)(C)C)cc1)CN1C[C@@H](C)O[C@@H](C)C1` (stereo partly drawn) [Fenpropimorph, fenpropimorph], for which the pest or weed control at 242.823 ppm in the data set on Phakopsora pachyrhizi [3] (Phakopsora pachyrhizi, fenpropimorph alone 242.823 ppm, read-out: Test G Obsd) stood at 33%. For the same compound, the pest or weed control at 458.587 ppm in the data set on Phakopsora pachyrhizi [3] (Phakopsora pachyrhizi, fenpropimorph alone 458.587 ppm, read-out: Test G Obsd) came to 44%.
Take `CC(C1CC1)C(O)(Cn1cncn1)c1ccc(Cl)cc1` (stereo not drawn) [Cyproconazole, cyproconazole]: the pest or weed control at 37.333 ppm in the data set with Phakopsora pachyrhizi [3] (Phakopsora pachyrhizi, cyproconazole alone 37.333 ppm, read-out: Test G Obsd) amounted to 44%. Moreover, the pest or weed control at 64.883 ppm in the data set with Phakopsora pachyrhizi [3] (Phakopsora pachyrhizi, cyproconazole alone 64.883 ppm, read-out: Test G Obsd) was determined as 68%.
Turning to `N#Cc1c(Cl)c(Cl)c(Cl)c(C#N)c1Cl` [Chlorothalonil, chlorothalonil], the pest or weed control at 138.129 ppm with Phakopsora pachyrhizi [3] (Phakopsora pachyrhizi, chlorothalonil alone 138.129 ppm, read-out: Test G Obsd) was 59%. For the same compound, the pest or weed control at 222.081 ppm in the data set with Phakopsora pachyrhizi [3] (Phakopsora pachyrhizi, chlorothalonil alone 222.081 ppm, read-out: Test G Obsd) is 85%.

For orientation: melting point means the temperature, or range, at which the solid turns liquid.
